The record followed here is patent publication US11542266B1, “Substituted piperidines as BTK inhibitors” (HAISCO PHARMACEUTICALS PTE. LTD., priority 2019, dated 2023).

One data set concerns the target BTK protein (Mus musculus (Mouse), UniProt P35991). In words: Detection of BTK protein degradation in spleen of mice. In kind it is in vivo. Particulars: po, 72 h, female ICR mice, 3 consecutive days of intragastric administration, read-out: DD50 value of compounds on BTK protein degradation in spleen of mice. Here is the method: Female ICR mice, 6-8 weeks old, were purchased from BEIJING VITAL RIVER LABORATORY ANIMAL TECHNOLOGY CO., LTD, and the experiment was started after 3 days of adaptation. After 3 consecutive days of intragastric administration of different doses of the compound, the spleen of mice was taken, the spleen cells were collected, and RIPA lysis buffer (Beyotime, Cat. P0013B) was added. The cells were lysed on ice for 15 minutes, and centrifuged at 12000 rpm at 4° C. for 10 minutes. The protein sample of the supernatant was collected, and the protein was quantified by using the BCA kit (Beyotime, Cat. P0009), and then the protein was diluted to 0.25 mg/mL. The expressions of BTK (CST, Cat. 8547S) and the internal reference β-actin (CST, Cat. 3700S) were detected using a fully automated western blot quantitative analyzer (Proteinsimple). The expression level of BTK relative to the internal reference was calculated using Compass software, and the DD50 value was calculated using Origen9.2 software according to formula (4). Specifically, the BTKadministration denoted the expression level of BTK in administration groups at different doses, and the BTKvehicle denoted the expression level of BTK in the vehicle control group. BTK %=BTKadministration/BTKvehicle×100 formula (4)

In another data set the test system is SU-DHL-4 cells. In words: Inhibition of cell proliferation, SU-DHL-4 cells (Cell Viability Assay, 72 h). It counts as cell-based, human. Particulars: Homo sapiens. An outline of the steps: (§1)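 RPMI1640 + 10% FBS cultures seeded at 20000/well (SU-DHL-4) or 5000/well (Mino, SU-DHL-6), exposed to compound dilutions in triplicate for 72 h at 37 °C, 5% CO2, DMSO vehicle control. Viability read by luminescent reagent; IC50 from dose-response and Max inhi. % = (1 − T72 treated/T72 vehicle)×100 at top concentration.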

In another data set the test system is Mino cells. In words: Inhibition of cell proliferation, Mino cells (Cell Viability Assay, 72 h). In kind it is cell-based, human. The note with it: Homo sapiens. The essentials: as §1
The test system of another data set is SU-DHL-6 cells. In words: Inhibition of cell proliferation, SU-DHL-6 cells (Cell Viability Assay, 72 h). It counts as cell-based. Particulars: Homo sapiens. The procedure: SU-DHL-4, Mino, and SU-DHL-6 cells, in the culture medium of RPMI1640+10% FBS, were cultured in an incubator at 37° C. under 5% CO2. Cells were plated in a 96-well plate. Specifically, SU-DHL-4 cells were at 20000/well, Mino and SU-DHL-6 cells were at 5000/well, with 90 μL/well. 10 μL of the compounds at different concentrations were added to each well. There were 3 replicate wells for each concentration, and the last column, added with DMSO, was used as a vehicle control group. The cultures were continued for 72 hours at 37° C. under 5% CO2. After 72 hours, 100 μL of detection reagent (Cell Viability Assay, Promega, G7573) was added to each well, and the cultures were uniformly mixed for 2 minutes, and incubated at room temperature for 10 minutes. The fluorescence signal value was measured with a microplate reader (PHERAstar FSX). The IC50 value of the compound on cell proliferation inhibition was calculated using Origin 9.2 software, and the inhibition rate at the highest concentration of the compound (Max inhi. %) was calculated according to formula (1). Max inhi. %=(1-T72 administration/T72 vehicle)×100 Formula (1).

Data set [1] in a line: Pharmacokinetic experiment in rats (i.g. vehicle DMSO/Solutol/PEG-400/SBE-β-CD). The note with it: Sprague-Dawley (SD), rat, plasma, po, male SD rats; for bioavailability: i.g. 20 mg/kg (DMSO/Solutol/PEG-400/SBE-β-CD) vs i.v. 5 mg/kg. In kind it is in vivo. The procedure: (§2) Objective: In this experiment, a single dose of each test compound was administered to SD rats intravenously and intragastrically, the concentrations of the test compound in plasma of rats were measured, and the pharmacokinetic characteristics and bioavailability of the test compound in rats were evaluated.
Experimental animals: Male SD rats, 200-250 g, 6-8 weeks old, 6 rats/compound. The experimental animals were purchased from CHENGDU DOSSY EXPERIMENTAL ANIMALS CO., LTD.
(§3) Experimental method: On the day of the experiment, 6 SD rats were randomly grouped according to their body weight. The animals were fasted with water available for 12 to 14 hours one day before the administration of a test compound, and were fed 4 hours after the administration.
Sampling: Before and after the administration, 0.1 mL of blood was taken from the orbit of the rats under isoflurane anesthesia, and placed in an EDTAK2 centrifuge tube. Centrifugation was carried out at 5000 rpm at 4° C. for 10 min and the plasma was collected.
Time points for plasma collection in G1 group: 0, 5 min, 15 min, 30 min, 1 h, 2 h, 4 h, 6 h, 8 h, and 24 h.
Time points for plasma collection in G2 group: 0, 15 min, 30 min, 1 h, 2 h, 4 h, 6 h, 8 h, and 24 h.
(§4) Before analysis and detection, all samples were stored at −80° C. The samples were analyzed quantitatively by LC-MS/MS.

The next data set deals with TMD-8 cells. In words: Inhibition of cell proliferation, TMD-8 cells (Cell Viability Assay, 72 h). In kind it is cell-based. Particulars: Homo sapiens, TMD8. The procedure:
(§5) OCI-LY10 and TMD-8 cells, in the culture medium of RPMI1640+10% FBS, were cultured in an incubator at 37° C. under 5% CO2. Cells were plated in a 96-well plate. Specifically, OCI-LY10 cells were at 10000/well, and TMD-8 cells were at 8000/well, with 90 μL/well. These cells were cultured at 37° C. under 5% CO2 overnight. On the next day, 10 μL of the compounds at different concentrations were added to each well. There were 3 replicate wells for each concentration, and the last column, added with DMSO, was used as a vehicle control group. The cultures were continued for 72 hours at 37° C. under 5% CO2. After 72 hours, 50 μL of detection reagent (Cell Viability Assay, Promega, G7573) was added to each well, and the cultures were uniformly mixed for 2 minutes, and incubated at room temperature for 10 minutes. The fluorescence signal value was measured with an Envision2104 plate reader (PerkinElmer). The inhibition rate was calculated using formula (2), wherein RLUcompound was the readout of the drug treated group, RLUcontrol was the average value of the vehicle control group, and RLUblank was the average value of the cell-free wells. The IC50 value was calculated using GraphPad Prism software. IR (%)=(1−(RLUcompound-RLUblank)/(RLUcontrol-RLUblank))*100% formula (2)

Another data set has as its system OCI-LY10 cells. In words: Inhibition of cell proliferation, OCI-LY10 cells (Cell Viability Assay, 72 h). In kind it is cell-based. Particulars: Homo sapiens. The procedure: as §5
Data set [2] can be described thus: Pharmacokinetic experiment in rats (i.g. vehicle 0.5% MC). In kind it is in vivo. Particulars: Sprague-Dawley (SD), rat, plasma, po, male SD rats; for bioavailability: i.g. 20 mg/kg (0.5% MC) vs i.v. 5 mg/kg; for AUC(0-t): i.g. 20 mg/kg, vehicle 0.5% MC, read-out: AUC0-t. Here is the method:
as §2
Experimental animals: Male SD rats, 200-250 g, 6-8 weeks old, 6 rats/test compound. The experimental animals were purchased from CHENGDU DOSSY EXPERIMENTAL ANIMALS CO., LTD.
as §3
Sampling: Before and after the administration, 0.1 ml of blood was taken from the orbit of the rats under isoflurane anesthesia, and placed in an EDTAK2 centrifuge tube. Centrifugation was carried out at 5000 rpm at 4° C. for 10 min and the plasma was collected.
Time points for plasma collection in G1 group: 0, 5 m, 15 m, 30 m, 1 h, 2 h, 4 h, 6 h, 8 h, and 24 h.
Time points for plasma collection in G2 group: 0, 15 m, 30 m, 1 h, 2 h, 4 h, 6 h, 8 h, and 24 h.
as §4

In general, IC50 refers to the concentration that gives 50% inhibition. A higher IC50 goes with weaker potency. Broadly, the bioavailability is dose-corrected exposure relative to a reference, in per cent. Lower therefore signals poor availability.

Sequence of BTK protein (P35991 whole entry): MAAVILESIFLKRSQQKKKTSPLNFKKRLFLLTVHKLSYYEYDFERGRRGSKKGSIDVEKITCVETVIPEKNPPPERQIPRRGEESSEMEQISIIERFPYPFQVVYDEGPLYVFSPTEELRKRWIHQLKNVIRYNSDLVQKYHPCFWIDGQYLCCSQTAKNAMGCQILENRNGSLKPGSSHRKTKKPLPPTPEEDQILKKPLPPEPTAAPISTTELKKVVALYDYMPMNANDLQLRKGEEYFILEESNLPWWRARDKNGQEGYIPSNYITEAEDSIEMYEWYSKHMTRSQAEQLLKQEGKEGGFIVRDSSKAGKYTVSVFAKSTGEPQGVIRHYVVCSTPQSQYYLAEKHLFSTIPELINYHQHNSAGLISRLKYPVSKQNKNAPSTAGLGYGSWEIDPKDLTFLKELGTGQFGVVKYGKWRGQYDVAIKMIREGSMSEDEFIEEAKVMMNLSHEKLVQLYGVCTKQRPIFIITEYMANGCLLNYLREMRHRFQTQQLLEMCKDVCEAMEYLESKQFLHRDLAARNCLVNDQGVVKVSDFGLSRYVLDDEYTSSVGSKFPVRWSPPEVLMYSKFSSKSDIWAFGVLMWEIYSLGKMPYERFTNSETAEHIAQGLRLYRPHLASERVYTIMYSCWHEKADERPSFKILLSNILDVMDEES

Regarding `Nc1ncnc2c1c(-c1ccc(Oc3ccccc3)cc1)nn2[C@H]1CCN(C2CCN(C3CN(c4ccc5c(c4)C(=O)N(C4CCC(=O)NC4=O)C5=O)C3)CC2)C[C@H]1F` (stereo partly drawn) [Compound 42, 5-(3-((3R,4S)-4-(4-amino-3-(4-phenoxyphenyl)-1H-pyrazolo[3,4-d]pyrimidin-1-yl)-3-fluoro-[1,4′-bipiperidin]-1′-yl)azetidin-1-yl)-2-(2,6-dioxopiperidin-3-yl)isoindoline-1,3-dione], the ED50 at BTK protein was determined as 1.9 mg/kg. Moreover, the IC50 with SU-DHL-4 cells was 0.382 µM; in the data set on Mino cells it was 0.015 µM; in the data set on SU-DHL-6 cells it was 0.177 µM; in the data set with TMD-8 cells it was 0.016 µM; with OCI-LY10 cells, 0.003 µM. Further, the bioavailability in data set [1] was found to be 9.14 ± 2.5%. Moreover, the AUC(0-t) in data set [1] (i.g. 20 mg/kg, vehicle 5% DMSO + 5% Solutol + 30% PEG-400 + 60% (20%SBE-β-CD)) amounted to 1200 ± 327 ng·h/mL.

`Nc1ncnc2c1c(-c1ccc(Oc3ccccc3)cc1)nn2[C@@H]1CCCN(C(=O)c2cn(CCOCCOCCOCCNc3cccc4c3C(=O)N(C3CCC(=O)NC3=O)C4=O)nn2)C1` (stereo partly drawn) [Compound P13I, reference compound]: the IC50 with SU-DHL-4 cells amounted to 1.18 µM; with Mino cells, 0.844 µM; in the data set with SU-DHL-6 cells, 1.64 µM; with TMD-8 cells, 0.104 µM; in the data set on OCI-LY10 cells, 0.029 µM. In addition, the bioavailability in data set [2] and in data set [1] was 0% in each case.

Consider `Nc1ncnc2c1c(-c1ccc(Oc3ccccc3)cc1)nn2C1CCN(C2CN(C3CN(c4ccc5c(c4)C(=O)N([C@H]4CCC(=O)NC4=O)C5=O)C3)C2)CC1` [Compound 17-b, 5-[3-[3-[4-[4-amino-3-(4-phenoxyphenyl)pyrazolo[3,4-d]pyrimidin-1-yl]-1-piperidyl]azetidin-1-yl]azetidin-1-yl]-2-[(3S)-2,6-dioxo-3-piperidyl]isoindoline-1,3-dione], for which, at BTK protein, the ED50 is 2.2 mg/kg. The results for the IC50 in the data set with SU-DHL-4 cells, with Mino cells and with SU-DHL-6 cells were 0.46 µM, 0.0072 µM and 0.662 µM, respectively.

On to `Nc1ncnc2c1c(-c1ccc(Oc3ccccc3)cc1)nn2C1CCN(C2CCN(C3CN(c4ccc5c(c4)C(=O)N(C4CCC(=O)NC4=O)C5=O)C3)CC2)CC1` (stereo not drawn) [Compound 8-1, 5-(3-(4-(4-amino-3-(4-phenoxyphenyl)-1H-pyrazolo[3,4-d]pyrimidin-1-yl)-[1,4′-bipiperidin]-1′-yl)azetidin-1-yl)-2-(2,6-dioxopiperidin-3-yl)isoindoline-1,3-dione], for which, on BTK protein, the ED50 was 3.8 mg/kg.

In the case of `Nc1ncnc2c1c(-c1ccc(Oc3ccccc3)cc1)nn2C1CCN(C2CN(C3CN(c4ccc5c(c4)C(=O)N(C4CCC(=O)NC4=O)C5=O)C3)C2)CC1F` (stereo not drawn) [Compound 19-1, trans-5-(3-(4-(4-amino-3-(4-phenoxyphenyl)-1H-pyrazolo[3,4-d]pyrimidin-1-yl)-3-fluoropiperidin-1-yl)-[1,3′-biazetidin]-1′-yl)-2-(2,6-dioxopiperidin-3-yl)isoindoline-1,3-dione], the IC50 with SU-DHL-4 cells came out at 0.394 µM; in the data set with TMD-8 cells, 0.014 µM; in the data set with OCI-LY10 cells, 0.023 µM. Moreover, the AUC(0-t) in data set [2] was found to be 1260 ± 117 ng·h/mL.

Take `Nc1ncnc2c1c(-c1ccc(Oc3ccccc3)cc1)nn2C1CCN(C2CN(C3CN(c4ccc5c(c4)C(=O)N([C@@H]4CCC(=O)NC4=O)C5=O)C3)C2)CC1` [Compound 17-a, 5-[3-[3-[4-[4-amino-3-(4-phenoxyphenyl)pyrazolo[3,4-d]pyrimidin-1-yl]-1-piperidyl]azetidin-1-yl]azetidin-1-yl]-2-[(3R)-2,6-dioxo-3-piperidyl]isoindoline-1,3-dione]: at BTK protein, the ED50 came out at 19.8 mg/kg. In addition, the IC50 was determined as 0.481 µM in the data set with SU-DHL-4 cells, 0.008 µM in the data set with Mino cells and 0.524 µM in the data set on SU-DHL-6 cells.

As to `Nc1ncnc2c1c(-c1ccc(Oc3ccccc3)cc1)nn2C1CCN(C2CCN(C3CN(c4ccc5c(c4)C(=O)N(C4CCC(=O)NC4=O)C5=O)C3)CC2)CC1` (stereo not drawn) [Compound 8, 5-(3-(4-(4-amino-3-(4-phenoxyphenyl)-1H-pyrazolo[3,4-d]pyrimidin-1-yl)-[1,4′-bipiperidin]-1′-yl)azetidin-1-yl)-2-(2,6-dioxopiperidin-3-yl)isoindoline-1,3-dione tritrifluoroacetate], the IC50 in the data set with SU-DHL-4 cells was found to be 0.255 µM; with Mino cells it was 0.309 µM; with SU-DHL-6 cells, 0.399 µM; in the data set with TMD-8 cells, 0.022 µM; with OCI-LY10 cells it was 0.003 µM. Besides, the bioavailability in data set [2] amounted to 11.8 ± 4.4%. In addition, the AUC(0-t) in data set [2] stood at 634 ± 238 ng·h/mL.

Turning to `Nc1ncnc2c1c(-c1ccc(Oc3ccccc3)cc1)nn2C1CCN(C2CCN(C3CN(c4ccc5c(c4)C(=O)N(C4CCC(=O)NC4=O)C5=O)C3)CC2F)CC1` (stereo not drawn) [Compound 18-1, cis-5-(3-(4-(4-amino-3-(4-phenoxyphenyl)-1H-pyrazolo[3,4-d]pyrimidin-1-yl)-3′-fluoro-[1,4′-bipiperidin]-1′-yl)azetidin-1-yl)-2-(2,6-dioxopiperidin-3-yl)isoindoline-1,3-dione], at BTK protein, the ED50 came out at 1.9 mg/kg. The IC50 was 0.02 µM with SU-DHL-4 cells; 0.018 µM in the data set on Mino cells; 0.029 µM in the data set on SU-DHL-6 cells; 0.008 µM with TMD-8 cells; 0.004 µM with OCI-LY10 cells. The AUC(0-t) in data set [2] was 218 ± 68 ng·h/mL.
